These are literature values, as cited in patent US20190167598A1, “A NOVEL TREATMENT REGIMEN INVOLVING SAPROPTERIN DIHYDROCHLORIDE” (DIPHARMA S.A., priority 2016, published 2019).

For series [1] the following is noted: in vivo.
The conditions of series [2]: neutral or basic conditions.

`C[C@H](O)[C@H](O)[C@H]1CNc2[nH]c(N)nc(=O)c2N1.Cl.Cl` [sapropterin, (6R)-2-amino-6-[(1R,2S)-1,2-dihydroxypropyl]-5,6,7,8-tetrahydropteridin-4(1H)-one dihydrochloride]: the “sapropterin elimination half-life time” value in series [1] is “about 4 h”. Besides, in series [2], the oxidation into dihydrobiopterin entry is given as “readily oxidized”.
